The text below walks through data of US11801238B2, “Anti-viral activity of VPS34 inhibitors” (priority 2020, dated 2023).

For data set [1], the system named is SARS CoV-2. The experiment in a line: SARS CoV-2 CPE assay for antiviral activity in Vero E6 host cells. Particulars: read-out: IC50 for inhibition of SARS CoV-2 mediated cell killing. In kind it is cell-based.
The nature of data set [2]: Compound cytotoxicity (CC50) counter screen, Cell Titer-Glo. In kind it is cell-based. The conditions noted are these: African green monkey, Example 5, Vero E6 cells, read-out: CC50 (general cytotoxic effects). On the procedure:
Compound cytotoxicity (CC50) is assessed in a BSL-2 counter screen as follows: Host cells in media are added in 25 μl aliquots (4000 cells/well) to each well of assay ready plates prepared with test compounds as above. Cells only (100% viability) and cells treated with hyamine at 100 μM final concentration (0% viability) serve as the high and low signal controls, respectively, for cytotoxic effect in the assay. DMSO is maintained at a constant concentration for all wells (0.3%) as dictated by the dilution factor of stock test compound concentrations. After incubating plates at 37° C./5% CO2 and 90% humidity for 72 hours, 30 μl Cell Titer-Glo (Promega) is added to each well. Luminescence is read using a BMG PHERAstar plate reader following incubation at room temperature for 10 minutes to measure cell viability.
Background: Counterscreens check selectivity or assay interference.

Data set [3] deals with SARS CoV-2. The data set is described as follows: microbe, parasite or virus in culture. Particulars: Severe acute respiratory syndrome coronavirus 2, A549, 48 h; read-out: IC50 for inhibition of SARS CoV-2 mediated cell killing. The class given is cell-based.
The next data set is described as follows: in vitro. Particulars: human.
The mark [4] stands for this setting: Vero C1008, CPE assay, Vero E6 cells, USA_WA1/2020 SARS CoV-2, 72 hours, 10-point dose response (high concentration 15 μM).

For `COC(=O)Nc1cc(-c2cc(-c3ccccc3C(F)(F)F)[nH]c(=O)c2)ccn1` [Compound 1], the IC50 in the data set on SARS CoV-2 [1] (setting [4]) came out at 120 nM; in the data set on SARS CoV-2 [3] it was 90 nM. In addition, in data set [2], the CC50 at 72 h was greater than 30000 nM. Further, the CC50 in the data set “in vitro” worked out at 17000 nM.

For the compound `CC(=O)Nc1cc(-c2cc(-c3cccnc3C(F)(F)F)[nH]c(=O)c2)ccn1` [Compound 2], the IC50 in the data set on SARS CoV-2 [1] (setting [4]) turned out to be 2340 nM; in the data set on SARS CoV-2 [3], 470 nM. Further, in data set [2], the CC50 at 72 h is greater than 30000 nM. In addition, the CC50 in the data set “in vitro” was greater than 30000 nM.

As for `COC(=O)Nc1cc(-c2cc(-c3cccnc3C(F)(F)F)[nH]c(=O)c2)ccn1` [Compound 3], the IC50 in the data set with SARS CoV-2 [1] (setting [4]) was 340 nM; with SARS CoV-2 [3], 190 nM. For the same compound, the CC50 at 72 h in data set [2] was greater than 30000 nM. For the same compound, the CC50 in “in vitro” is greater than 30000 nM.

As to `COC(=O)Nc1cc(-c2cc(N3CCOCC3C(F)(F)F)[nH]c(=O)c2)ccn1` (stereo not shown) [Compound 4], the IC50 stood at 209 nM in the data set on SARS CoV-2 [1] (Vero C1008, 72 h) and 67 nM in the data set on SARS CoV-2 [3]. Also, the CC50 at 72 h in data set [2] was determined as 8260 nM. The CC50 in “in vitro” was found to be 2400 nM.

As a reminder, the IC50 is the midpoint of a concentration-inhibition curve.
